{"source": "ChEMBL document CHEMBL5465560", "about": "“Selectivity Literature for EUbOPEN Chemogenomic Library” (2024)", "key": {"[1]": {"target": "MAP kinase-interacting serine/threonine-protein kinase 1 (Homo sapiens) (UniProt Q9BUB5)", "sequence (Q9BUB5 whole entry, looked up)": "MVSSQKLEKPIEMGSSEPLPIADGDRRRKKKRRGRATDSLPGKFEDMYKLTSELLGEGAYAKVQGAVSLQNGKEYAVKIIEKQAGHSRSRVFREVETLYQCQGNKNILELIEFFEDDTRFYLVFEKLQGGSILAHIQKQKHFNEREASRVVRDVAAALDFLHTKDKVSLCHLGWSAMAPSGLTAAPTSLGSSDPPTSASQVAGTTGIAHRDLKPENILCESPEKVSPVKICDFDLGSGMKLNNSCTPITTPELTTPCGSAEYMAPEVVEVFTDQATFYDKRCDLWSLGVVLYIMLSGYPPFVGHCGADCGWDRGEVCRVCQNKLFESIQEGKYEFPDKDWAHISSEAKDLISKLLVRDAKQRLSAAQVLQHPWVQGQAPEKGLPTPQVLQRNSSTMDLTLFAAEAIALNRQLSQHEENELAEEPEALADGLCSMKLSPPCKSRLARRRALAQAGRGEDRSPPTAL", "test": "Selectivity interaction (KinomeScan (DiscoverX)) EUB0000229b MKNK1", "conditions": "at 10 µM"}, "[2]": {"target": "T1, Rhodopsin kinase GRK7 (Homo sapiens) (UniProt Q8WTQ7)", "T1 sequence (whole entry)": "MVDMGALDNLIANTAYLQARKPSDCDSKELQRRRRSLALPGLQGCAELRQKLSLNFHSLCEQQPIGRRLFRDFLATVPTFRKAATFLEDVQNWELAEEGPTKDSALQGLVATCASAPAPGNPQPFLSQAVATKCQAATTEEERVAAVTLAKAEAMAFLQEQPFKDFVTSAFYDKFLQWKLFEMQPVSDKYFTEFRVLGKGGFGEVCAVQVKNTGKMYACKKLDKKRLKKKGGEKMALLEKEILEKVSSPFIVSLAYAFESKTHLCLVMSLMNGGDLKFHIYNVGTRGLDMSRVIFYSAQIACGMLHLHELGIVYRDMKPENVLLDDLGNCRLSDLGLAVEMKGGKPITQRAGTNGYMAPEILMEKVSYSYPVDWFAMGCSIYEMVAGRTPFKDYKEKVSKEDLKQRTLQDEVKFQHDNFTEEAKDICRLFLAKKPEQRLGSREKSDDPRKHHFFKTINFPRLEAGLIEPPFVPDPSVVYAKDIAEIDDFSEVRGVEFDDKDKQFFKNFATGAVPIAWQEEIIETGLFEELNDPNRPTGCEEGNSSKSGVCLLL", "test": "Selectivity interaction (KinomeScan (DiscoverX)) EUB0001079a GRK7", "conditions": "at 1 µM"}, "[3]": {"target": "T2, Histone-lysine N-methyltransferase SETD7 (Homo sapiens) (UniProt Q8WTS6)", "T2 sequence (whole entry)": "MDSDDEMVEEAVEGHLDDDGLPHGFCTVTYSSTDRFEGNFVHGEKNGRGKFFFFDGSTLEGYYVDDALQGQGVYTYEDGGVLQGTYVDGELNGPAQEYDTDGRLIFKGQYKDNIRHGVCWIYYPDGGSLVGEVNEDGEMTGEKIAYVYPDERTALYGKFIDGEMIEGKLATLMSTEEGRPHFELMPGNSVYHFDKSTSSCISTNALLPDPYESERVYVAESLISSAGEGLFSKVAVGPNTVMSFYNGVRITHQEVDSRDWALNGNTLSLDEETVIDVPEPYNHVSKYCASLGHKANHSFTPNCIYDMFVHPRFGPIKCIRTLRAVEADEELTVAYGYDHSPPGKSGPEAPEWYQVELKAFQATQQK", "test": "Selectivity interaction (Methyltransferase screen (radiometric assays, panel of 8 PRMTs, 21 protein lysine methyltransferases, 3 DNA methyltransferases, and one RNA methyltransferase)) EUB0000272b SETD7"}, "[4]": {"target": "Cyclin-dependent kinase 14 (Homo sapiens) (UniProt O94921)", "sequence (O94921 whole entry)": "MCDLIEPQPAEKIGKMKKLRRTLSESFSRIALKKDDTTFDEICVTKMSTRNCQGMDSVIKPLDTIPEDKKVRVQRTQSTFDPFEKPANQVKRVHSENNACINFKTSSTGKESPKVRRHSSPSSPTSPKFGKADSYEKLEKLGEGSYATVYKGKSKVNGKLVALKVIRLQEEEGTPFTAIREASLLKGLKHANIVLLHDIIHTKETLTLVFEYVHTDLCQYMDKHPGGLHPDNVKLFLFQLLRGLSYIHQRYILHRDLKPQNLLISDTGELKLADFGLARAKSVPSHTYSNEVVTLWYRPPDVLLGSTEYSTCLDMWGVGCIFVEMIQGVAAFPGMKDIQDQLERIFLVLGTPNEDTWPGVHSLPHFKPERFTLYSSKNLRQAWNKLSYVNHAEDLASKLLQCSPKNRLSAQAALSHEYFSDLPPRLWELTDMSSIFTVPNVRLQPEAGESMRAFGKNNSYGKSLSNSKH", "conditions": "at 10 µM"}, "[5]": {"target": "T3, Serine/threonine-protein kinase DCLK2 (Homo sapiens) (UniProt Q8N568)", "T3 sequence (whole entry)": "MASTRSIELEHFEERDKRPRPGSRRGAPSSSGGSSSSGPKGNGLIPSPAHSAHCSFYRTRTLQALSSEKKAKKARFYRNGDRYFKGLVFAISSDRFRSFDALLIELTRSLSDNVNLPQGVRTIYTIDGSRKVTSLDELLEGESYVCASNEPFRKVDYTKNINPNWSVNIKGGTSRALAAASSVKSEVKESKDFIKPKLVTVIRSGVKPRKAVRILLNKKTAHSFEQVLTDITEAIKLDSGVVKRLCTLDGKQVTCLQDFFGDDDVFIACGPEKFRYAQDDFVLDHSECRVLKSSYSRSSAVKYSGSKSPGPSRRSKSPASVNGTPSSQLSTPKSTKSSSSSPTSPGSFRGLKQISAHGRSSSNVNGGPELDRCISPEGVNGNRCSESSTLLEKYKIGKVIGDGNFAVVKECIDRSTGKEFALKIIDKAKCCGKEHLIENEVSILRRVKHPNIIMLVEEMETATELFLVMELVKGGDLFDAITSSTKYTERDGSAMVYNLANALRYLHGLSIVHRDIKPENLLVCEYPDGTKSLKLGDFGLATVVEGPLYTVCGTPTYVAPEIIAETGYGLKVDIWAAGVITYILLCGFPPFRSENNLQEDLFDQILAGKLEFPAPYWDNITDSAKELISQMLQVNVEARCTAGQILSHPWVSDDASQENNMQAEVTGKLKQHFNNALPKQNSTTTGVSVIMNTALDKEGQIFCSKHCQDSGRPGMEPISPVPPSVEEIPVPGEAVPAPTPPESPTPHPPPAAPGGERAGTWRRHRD", "test": "Selectivity interaction (Kinase screening (Nanosyn)) EUB0000604a DCLK2"}, "D(2) dopamine receptor": {"target": "D(2) dopamine receptor (Homo sapiens, UniProt P14416)", "sequence (P14416 whole entry)": "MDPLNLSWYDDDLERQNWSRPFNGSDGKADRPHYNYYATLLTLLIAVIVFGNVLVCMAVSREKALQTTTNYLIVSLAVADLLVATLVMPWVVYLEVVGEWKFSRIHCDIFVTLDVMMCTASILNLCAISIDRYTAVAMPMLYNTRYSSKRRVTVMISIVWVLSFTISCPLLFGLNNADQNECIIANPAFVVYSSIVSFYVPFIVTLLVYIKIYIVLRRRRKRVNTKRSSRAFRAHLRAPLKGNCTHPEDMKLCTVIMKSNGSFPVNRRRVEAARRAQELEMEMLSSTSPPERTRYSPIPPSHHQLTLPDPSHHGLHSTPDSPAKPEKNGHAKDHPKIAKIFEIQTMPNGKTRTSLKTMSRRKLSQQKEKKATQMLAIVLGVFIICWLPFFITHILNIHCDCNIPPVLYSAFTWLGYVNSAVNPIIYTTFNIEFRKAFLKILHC", "test": "Selectivity interaction (Eurofins CEREP Diversity Profile (receptors and ion channels)) EUB0000279b DRD2", "conditions": "at 10 µM"}, "[6]": {"target": "T4, Phosphatidylinositol 5-phosphate 4-kinase type-2 beta (Homo sapiens) (UniProt P78356)", "T4 sequence (whole entry)": "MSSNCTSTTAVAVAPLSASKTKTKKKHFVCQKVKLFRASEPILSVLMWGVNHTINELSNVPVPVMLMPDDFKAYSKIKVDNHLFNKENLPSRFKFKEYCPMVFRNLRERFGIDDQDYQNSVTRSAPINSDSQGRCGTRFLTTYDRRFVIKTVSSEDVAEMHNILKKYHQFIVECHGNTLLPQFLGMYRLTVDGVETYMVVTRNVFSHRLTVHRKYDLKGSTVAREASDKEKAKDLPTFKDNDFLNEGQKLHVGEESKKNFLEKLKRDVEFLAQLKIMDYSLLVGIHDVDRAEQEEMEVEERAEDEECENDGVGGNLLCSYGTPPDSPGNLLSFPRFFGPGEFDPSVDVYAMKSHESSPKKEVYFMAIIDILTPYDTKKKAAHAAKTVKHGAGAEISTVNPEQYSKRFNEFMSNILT", "test": "Selectivity interaction (KinomeScan (DiscoverX)) EUB0001049a PIP4K2B", "conditions": "at 1 µM"}, "[7]": {"target": "Wee1-like protein kinase (Homo sapiens) (UniProt P30291)", "sequence (P30291 whole entry, looked up)": "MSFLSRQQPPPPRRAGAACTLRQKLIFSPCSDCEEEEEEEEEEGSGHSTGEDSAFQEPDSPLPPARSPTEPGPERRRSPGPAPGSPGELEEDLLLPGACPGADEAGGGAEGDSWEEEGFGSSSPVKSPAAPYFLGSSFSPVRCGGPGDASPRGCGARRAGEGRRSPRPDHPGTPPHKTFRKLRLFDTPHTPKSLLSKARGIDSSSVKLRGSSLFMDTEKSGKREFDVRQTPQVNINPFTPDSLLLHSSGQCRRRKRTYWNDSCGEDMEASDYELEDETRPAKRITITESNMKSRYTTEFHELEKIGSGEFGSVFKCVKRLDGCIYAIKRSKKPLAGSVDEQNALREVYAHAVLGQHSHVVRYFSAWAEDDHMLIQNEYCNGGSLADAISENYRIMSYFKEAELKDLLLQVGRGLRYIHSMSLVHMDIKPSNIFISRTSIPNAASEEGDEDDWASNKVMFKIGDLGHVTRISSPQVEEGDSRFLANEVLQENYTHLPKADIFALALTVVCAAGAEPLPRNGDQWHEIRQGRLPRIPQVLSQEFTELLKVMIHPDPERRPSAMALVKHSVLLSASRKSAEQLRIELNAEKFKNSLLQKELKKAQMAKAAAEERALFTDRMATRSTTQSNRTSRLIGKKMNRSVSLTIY", "test": "Selectivity interaction (KinomeScan (DiscoverX)) EUB0001619a WEE1", "conditions": "at 1 µM"}, "[8]": {"target": "Ephrin type-A receptor 7 (Homo sapiens) (UniProt Q15375)", "sequence (Q15375 28-998 limits assumed)": "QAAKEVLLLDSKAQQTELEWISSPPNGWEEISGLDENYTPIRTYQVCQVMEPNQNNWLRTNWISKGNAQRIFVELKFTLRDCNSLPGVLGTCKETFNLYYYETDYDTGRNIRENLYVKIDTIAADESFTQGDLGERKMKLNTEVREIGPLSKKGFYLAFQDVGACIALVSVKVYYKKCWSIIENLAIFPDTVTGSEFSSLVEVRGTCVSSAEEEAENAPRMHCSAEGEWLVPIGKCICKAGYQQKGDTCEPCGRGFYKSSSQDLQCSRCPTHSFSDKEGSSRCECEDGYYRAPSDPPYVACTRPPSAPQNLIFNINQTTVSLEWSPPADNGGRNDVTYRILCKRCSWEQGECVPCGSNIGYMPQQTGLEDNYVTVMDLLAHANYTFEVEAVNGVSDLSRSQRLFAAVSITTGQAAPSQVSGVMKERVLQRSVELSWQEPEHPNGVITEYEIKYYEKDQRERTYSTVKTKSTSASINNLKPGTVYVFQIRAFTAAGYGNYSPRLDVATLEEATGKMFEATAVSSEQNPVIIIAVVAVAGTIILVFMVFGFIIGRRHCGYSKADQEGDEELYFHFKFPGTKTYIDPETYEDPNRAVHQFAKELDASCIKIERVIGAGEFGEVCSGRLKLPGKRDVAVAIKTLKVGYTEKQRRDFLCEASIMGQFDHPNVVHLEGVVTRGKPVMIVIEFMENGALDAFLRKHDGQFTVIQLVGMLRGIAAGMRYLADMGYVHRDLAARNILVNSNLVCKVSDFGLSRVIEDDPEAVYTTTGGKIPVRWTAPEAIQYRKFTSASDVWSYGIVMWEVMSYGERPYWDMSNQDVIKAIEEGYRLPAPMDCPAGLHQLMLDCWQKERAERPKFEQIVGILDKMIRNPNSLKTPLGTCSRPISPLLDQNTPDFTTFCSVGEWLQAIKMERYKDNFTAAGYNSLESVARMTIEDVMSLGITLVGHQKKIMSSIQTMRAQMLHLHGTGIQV", "test": "Selectivity interaction (Ambit KINOMEscan and KiNATiv profiling in Jurkat cells) EUB0000090b EPHA7", "assay_type": "cell-based", "conditions": "at 1 µM"}}, "data": [{"smiles": "COc1cc(N(C)c2ccnc3ccc(C(F)(F)F)cc23)cc(OC)c1OC", "values": [{"measurement": "% binding", "setting": "[1]", "value": 89, "unit": "%"}]}, {"smiles": "Nc1cnc(N2CCc3cc(S(=O)(=O)Nc4c(F)cc(Cl)cc4F)cc(N4CCCC4=O)c32)nc1", "note": "[TP-020n]", "values": [{"measurement": "% of control", "setting": "[2]", "value": 99, "unit": "%"}]}, {"smiles": "Cc1cc(C)cc([C@H]2c3cc(C)ccc3NC(=O)CN2C(=O)c2ccc(Br)s2)c1", "values": [{"measurement": "% of activity", "setting": "[3]; at 1 µM", "value": 101, "unit": "%"}, {"measurement": "% of activity", "setting": "[3]; at 10 µM", "value": 99, "unit": "%"}]}, {"smiles": "Cc1cc([C@@H](C)Nc2ccccc2C(=O)O)c2nc(N3CCOCC3)cc(=O)n2c1", "note": "[AZD-6482]", "values": [{"measurement": "% of control", "setting": "[4]", "value": 100, "unit": "%"}]}, {"smiles": "Cc1cnc(Nc2ccc(F)cc2Cl)nc1-c1c[nH]c(C(=O)N[C@H](CO)c2cccc(Cl)c2)c1", "values": [{"measurement": "% of inhibition", "setting": "[5]", "value": 1, "unit": "%"}]}, {"smiles": "CC(=O)c1cc(-c2ccccc2OCC2CC2)c2ncccn12", "values": [{"measurement": "% of control", "setting": "D(2) dopamine receptor", "value": 92, "unit": "%"}]}, {"smiles": "COc1cc(Nc2nc(C)cc(-c3cnn4nc(OC)ccc34)n2)cc(C(F)(F)F)c1", "values": [{"measurement": "% of control", "setting": "[6]", "value": 96, "unit": "%"}]}, {"smiles": "N#Cc1cccc(-c2c[nH]c3ncnc(N4CCOCC4)c23)c1", "values": [{"measurement": "% of control", "setting": "[7]", "value": 100, "unit": "%"}]}, {"smiles": "CN(C)C/C=C/C(=O)Nc1ccc(C(=O)N2CCCC(Nc3ncc(Cl)c(-c4c[nH]c5ccccc45)n3)C2)cc1", "note": "(stereo not given)", "values": [{"measurement": "% of control", "setting": "[8]", "value": 93, "unit": "%"}]}]}
